ChEMBL document CHEMBL1146943, “Synthesis, in vitro and in vivo evaluation of [O-methyl-11C] 2-{4-[4-(3-methoxyphenyl)piperazin-1-yl]-butyl}-4-methyl-2H-[1,2,4]-triazine-3,5-dione: a novel agonist 5-HT1A receptor PET ligand” (Bioorg Med Chem Lett, 2006)

Assays:
[1] = Binding affinity to NK receptor by radioligand binding assay
[2] = biological target: T1, 5-hydroxytryptamine receptor 1A (Homo sapiens, UniProt P08908); assay: Agonist activity assessed by stimulation of [35S]GTP-gamma-S binding to human 5HT1A receptor expressed in CHO cells; assay type: functional, cell-based
T1 sequence (P08908 whole entry): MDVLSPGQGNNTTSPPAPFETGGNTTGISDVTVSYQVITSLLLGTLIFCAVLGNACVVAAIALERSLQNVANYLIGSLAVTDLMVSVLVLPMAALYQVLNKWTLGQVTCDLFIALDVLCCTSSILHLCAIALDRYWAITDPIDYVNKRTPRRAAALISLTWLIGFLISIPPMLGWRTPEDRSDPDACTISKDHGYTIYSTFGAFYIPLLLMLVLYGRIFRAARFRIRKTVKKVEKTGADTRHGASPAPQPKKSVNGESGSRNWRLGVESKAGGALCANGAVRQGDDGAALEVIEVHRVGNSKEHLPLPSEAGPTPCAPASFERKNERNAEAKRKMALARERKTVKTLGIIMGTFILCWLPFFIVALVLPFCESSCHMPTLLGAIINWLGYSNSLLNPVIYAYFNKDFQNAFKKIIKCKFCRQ

[3] = biological target: Sodium-dependent serotonin transporter (Homo sapiens, UniProt P31645); assay: Binding affinity to SERT by radioligand binding assay
Histamine H3 receptor = Histamine H3 receptor (Homo sapiens, UniProt Q9Y5N1); assay: Binding affinity to histamine H3 receptor by radioligand binding assay
Histamine H3 receptor, sequence (Q9Y5N1 whole entry): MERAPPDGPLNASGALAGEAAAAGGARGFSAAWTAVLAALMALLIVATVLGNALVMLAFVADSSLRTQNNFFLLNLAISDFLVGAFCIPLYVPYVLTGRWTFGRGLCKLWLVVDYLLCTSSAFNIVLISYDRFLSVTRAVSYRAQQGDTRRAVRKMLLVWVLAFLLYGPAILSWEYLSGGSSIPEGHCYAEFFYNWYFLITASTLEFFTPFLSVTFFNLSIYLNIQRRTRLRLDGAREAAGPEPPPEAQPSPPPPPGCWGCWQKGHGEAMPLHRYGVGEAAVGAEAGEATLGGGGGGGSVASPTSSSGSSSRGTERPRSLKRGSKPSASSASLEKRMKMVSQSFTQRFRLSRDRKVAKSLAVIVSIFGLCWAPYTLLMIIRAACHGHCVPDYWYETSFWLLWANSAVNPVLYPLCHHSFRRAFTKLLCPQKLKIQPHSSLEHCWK

[4] = biological target: 5-hydroxytryptamine receptor 2A (Homo sapiens, UniProt P28223); assay: Binding affinity to 5HT2A receptor by radioligand binding assay
[5] = biological target: 5-hydroxytryptamine receptor 2B (Homo sapiens, UniProt P41595); assay: Binding affinity to 5HT2B receptor by radioligand binding assay
[6] = biological target: Alpha-2A adrenergic receptor (Homo sapiens, UniProt P08913); assay: Binding affinity to alpha 2A adrenergic receptor by radioligand binding assay
Alpha-2A adrenergic receptor, sequence (P08913 whole entry): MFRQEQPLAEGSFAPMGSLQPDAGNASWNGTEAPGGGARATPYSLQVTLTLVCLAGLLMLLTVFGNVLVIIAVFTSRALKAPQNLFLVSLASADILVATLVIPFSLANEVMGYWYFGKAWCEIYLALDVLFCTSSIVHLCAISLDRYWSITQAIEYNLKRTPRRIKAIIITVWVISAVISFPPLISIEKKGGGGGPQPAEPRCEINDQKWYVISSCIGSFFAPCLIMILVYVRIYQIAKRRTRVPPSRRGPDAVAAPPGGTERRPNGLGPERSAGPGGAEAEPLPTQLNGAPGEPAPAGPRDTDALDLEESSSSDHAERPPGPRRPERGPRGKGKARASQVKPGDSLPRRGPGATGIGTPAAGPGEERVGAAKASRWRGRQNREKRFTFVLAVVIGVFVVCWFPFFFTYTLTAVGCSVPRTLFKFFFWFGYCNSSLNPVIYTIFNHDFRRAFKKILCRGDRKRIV

Histamine H4 receptor = Histamine H4 receptor (Homo sapiens, UniProt Q9H3N8); assay: Binding affinity to histamine H4 receptor by radioligand binding assay
D(4) dopamine receptor = D(4) dopamine receptor (Homo sapiens, UniProt P21917); assay: Binding affinity to D4 receptor by radioligand binding assay
D(4) dopamine receptor, sequence (P21917 whole entry): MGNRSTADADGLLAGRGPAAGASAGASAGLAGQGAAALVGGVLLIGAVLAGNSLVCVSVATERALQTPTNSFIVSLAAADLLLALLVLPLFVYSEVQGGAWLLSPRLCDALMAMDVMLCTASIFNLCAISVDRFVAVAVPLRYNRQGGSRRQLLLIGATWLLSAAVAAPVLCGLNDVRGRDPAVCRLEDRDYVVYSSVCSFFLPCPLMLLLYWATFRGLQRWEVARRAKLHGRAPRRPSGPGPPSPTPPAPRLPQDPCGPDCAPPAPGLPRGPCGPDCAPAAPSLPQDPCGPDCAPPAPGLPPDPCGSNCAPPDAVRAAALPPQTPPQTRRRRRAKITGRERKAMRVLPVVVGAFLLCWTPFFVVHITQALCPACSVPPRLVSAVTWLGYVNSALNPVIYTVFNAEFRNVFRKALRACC

Adenosine A2 receptor = Adenosine A2 receptor (Homo sapiens, UniProt P29275+P29274); assay: Binding affinity to adenosine A2 receptor by radioligand binding assay; assay type: protein assay
Histamine H2 receptor = Histamine H2 receptor (Homo sapiens, UniProt P25021); assay: Binding affinity to histamine H2 receptor by radioligand binding assay
Histamine H2 receptor, sequence (P25021 whole entry): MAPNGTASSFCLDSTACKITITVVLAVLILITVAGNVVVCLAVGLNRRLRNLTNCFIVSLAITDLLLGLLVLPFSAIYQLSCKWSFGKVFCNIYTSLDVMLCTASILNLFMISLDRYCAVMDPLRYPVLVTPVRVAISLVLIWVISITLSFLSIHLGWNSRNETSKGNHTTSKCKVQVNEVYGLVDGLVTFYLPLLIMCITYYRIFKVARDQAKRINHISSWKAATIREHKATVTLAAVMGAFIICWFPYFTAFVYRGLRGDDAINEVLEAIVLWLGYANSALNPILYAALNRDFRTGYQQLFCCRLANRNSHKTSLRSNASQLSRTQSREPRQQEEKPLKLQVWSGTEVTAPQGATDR

[7] = biological target: Glutamate [NMDA] receptor; assay: Binding affinity to NMDA receptor by radioligand binding assay; assay type: protein-complex assay
[8] = biological target: Glutamate receptor ionotropic AMPA (Homo sapiens, UniProt P42261+P42262+P42263+P48058); assay: Binding affinity to AMPA receptor by radioligand binding assay; assay type: protein-complex assay
[9] = Binding affinity to V receptor by radioligand binding assay
[10] = biological target: Muscarinic acetylcholine receptor; assay: Binding affinity to M receptor by radioligand binding assay; assay type: protein assay
D(3) dopamine receptor = D(3) dopamine receptor (Homo sapiens, UniProt P35462); assay: Binding affinity to D3 receptor by radioligand binding assay
[11] = Binding affinity to VMAT by radioligand binding assay
[12] = biological target: Sigma non-opioid intracellular receptor 1 (Homo sapiens, UniProt Q99720); assay: Binding affinity to sigma1 opioid receptor by radioligand binding assay
[13] = biological target: ATP-dependent translocase ABCB1 (Homo sapiens, UniProt P08183); assay: Binding affinity to MDR1 by radioligand binding assay
[14] = biological target: T1, 5-hydroxytryptamine receptor 1A; assay: Binding affinity to 5HT1A receptor by radioligand binding assay
Adenosine receptor A1 = Adenosine receptor A1 (Homo sapiens, UniProt P30542); assay: Binding affinity to adenosine A1 receptor by radioligand binding assay
Histamine H1 receptor = Histamine H1 receptor (Homo sapiens, UniProt P35367); assay: Binding affinity to histamine H1 receptor by radioligand binding assay
Histamine H1 receptor, sequence (P35367 whole entry): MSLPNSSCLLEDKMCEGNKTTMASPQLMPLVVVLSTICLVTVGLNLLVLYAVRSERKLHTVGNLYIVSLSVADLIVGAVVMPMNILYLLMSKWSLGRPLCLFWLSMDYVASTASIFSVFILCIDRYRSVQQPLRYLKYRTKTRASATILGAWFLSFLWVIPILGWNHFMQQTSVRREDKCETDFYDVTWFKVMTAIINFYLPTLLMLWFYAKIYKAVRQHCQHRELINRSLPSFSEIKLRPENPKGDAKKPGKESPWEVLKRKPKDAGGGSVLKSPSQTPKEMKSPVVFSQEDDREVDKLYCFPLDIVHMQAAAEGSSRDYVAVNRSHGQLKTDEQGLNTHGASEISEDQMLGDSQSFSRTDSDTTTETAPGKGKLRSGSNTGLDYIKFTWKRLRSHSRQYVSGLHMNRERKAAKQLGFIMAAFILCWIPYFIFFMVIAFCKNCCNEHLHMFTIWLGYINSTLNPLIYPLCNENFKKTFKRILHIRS

[15] = biological target: 5-hydroxytryptamine receptor 5A (Homo sapiens, UniProt P47898); assay: Binding affinity to 5HT5A receptor by radioligand binding assay
[16] = biological target: Sodium-dependent noradrenaline transporter (Homo sapiens, UniProt P23975); assay: Binding affinity to NET by radioligand binding assay
Sodium-dependent noradrenaline transporter, sequence (P23975 whole entry): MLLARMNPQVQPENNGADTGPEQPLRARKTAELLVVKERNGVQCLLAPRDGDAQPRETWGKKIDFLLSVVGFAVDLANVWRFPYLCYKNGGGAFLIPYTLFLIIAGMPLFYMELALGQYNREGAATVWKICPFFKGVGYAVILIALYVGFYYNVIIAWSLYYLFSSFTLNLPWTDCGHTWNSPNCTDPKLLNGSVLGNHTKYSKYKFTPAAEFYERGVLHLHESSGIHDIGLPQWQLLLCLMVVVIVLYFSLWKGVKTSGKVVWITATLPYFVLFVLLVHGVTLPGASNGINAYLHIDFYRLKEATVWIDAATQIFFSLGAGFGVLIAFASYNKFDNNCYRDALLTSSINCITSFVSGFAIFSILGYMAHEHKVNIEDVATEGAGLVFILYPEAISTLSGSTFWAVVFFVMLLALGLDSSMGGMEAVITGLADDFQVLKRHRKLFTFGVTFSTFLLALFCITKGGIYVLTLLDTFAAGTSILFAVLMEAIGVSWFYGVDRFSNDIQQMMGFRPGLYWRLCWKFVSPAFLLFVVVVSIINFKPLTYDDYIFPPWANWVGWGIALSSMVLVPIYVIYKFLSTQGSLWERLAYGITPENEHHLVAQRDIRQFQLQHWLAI

[17] = biological target: Serotonin 3 (5-HT3) receptor; assay: Binding affinity to 5HT3 receptor by radioligand binding assay; assay type: protein-complex assay, Homo sapiens
[18] = Binding affinity to mGluR by radioligand binding assay; design: species or system Homo sapiens
[19] = Binding affinity to calcium channel by radioligand binding assay
[20] = biological target: Delta-type opioid receptor (Homo sapiens, UniProt P41143); assay: Binding affinity to DOR by radioligand binding assay
[21] = biological target: Kappa-type opioid receptor (Homo sapiens, UniProt P41145); assay: Binding affinity to KOR by radioligand binding assay
[22] = biological target: 5-hydroxytryptamine receptor 1B (Homo sapiens, UniProt P28222); assay: Binding affinity to 5HT1B receptor by radioligand binding assay
D(1B) dopamine receptor = D(1B) dopamine receptor (Homo sapiens, UniProt P21918); assay: Binding affinity to D5 dopamine receptor by radioligand binding assay
D(1B) dopamine receptor, sequence (P21918 whole entry): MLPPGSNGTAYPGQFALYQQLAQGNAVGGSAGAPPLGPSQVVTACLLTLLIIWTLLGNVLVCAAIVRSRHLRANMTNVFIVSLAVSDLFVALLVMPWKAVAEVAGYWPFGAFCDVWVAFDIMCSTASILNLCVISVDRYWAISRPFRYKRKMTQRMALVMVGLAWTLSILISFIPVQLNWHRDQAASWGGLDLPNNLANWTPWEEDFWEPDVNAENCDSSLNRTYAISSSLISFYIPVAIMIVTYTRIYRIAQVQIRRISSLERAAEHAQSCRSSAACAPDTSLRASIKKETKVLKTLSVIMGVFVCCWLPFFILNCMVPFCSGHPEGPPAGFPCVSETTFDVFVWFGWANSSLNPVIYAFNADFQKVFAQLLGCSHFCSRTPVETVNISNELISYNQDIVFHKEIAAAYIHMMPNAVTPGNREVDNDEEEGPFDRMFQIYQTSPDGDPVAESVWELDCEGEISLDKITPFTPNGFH

[23] = biological target: 5-hydroxytryptamine receptor 1E (Homo sapiens, UniProt P28566); assay: Binding affinity to 5HT1E receptor by radioligand binding assay
[24] = biological target: Alpha-1B adrenergic receptor (Homo sapiens, UniProt P35368); assay: Binding affinity to alpha 1B adrenergic receptor by radioligand binding assay
Adenosine receptor A3 = Adenosine receptor A3 (Homo sapiens, UniProt P0DMS8); assay: Binding affinity to adenosine A3 receptor by radioligand binding assay
Adenosine receptor A3, sequence (P0DMS8 whole entry): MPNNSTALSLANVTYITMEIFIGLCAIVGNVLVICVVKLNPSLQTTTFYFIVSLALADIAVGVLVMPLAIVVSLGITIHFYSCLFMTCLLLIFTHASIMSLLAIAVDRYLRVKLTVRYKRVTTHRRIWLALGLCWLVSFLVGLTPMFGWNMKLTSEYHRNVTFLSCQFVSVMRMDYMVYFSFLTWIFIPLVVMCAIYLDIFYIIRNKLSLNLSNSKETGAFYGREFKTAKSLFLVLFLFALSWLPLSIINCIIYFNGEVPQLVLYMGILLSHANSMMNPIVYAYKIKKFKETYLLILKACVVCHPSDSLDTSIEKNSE

[25] = biological target: 5-hydroxytryptamine receptor 6 (Homo sapiens, UniProt P50406); assay: Binding affinity to 5HT6 receptor by radioligand binding assay
[26] = Binding affinity to EP receptor by radioligand binding assay
[27] = biological target: Alpha-1A adrenergic receptor (Homo sapiens, UniProt P35348); assay: Binding affinity to alpha 1A adrenergic receptor by radioligand binding assay
D(2) dopamine receptor = D(2) dopamine receptor (Homo sapiens, UniProt P14416); assay: Binding affinity to D2 dopamine receptor by radioligand binding assay
[28] = biological target: Glutamate receptor ionotropic kainate; assay: Binding affinity to KAR by radioligand binding assay; assay type: protein-complex assay
[29] = biological target: Voltage-gated inwardly rectifying potassium channel KCNH2 (Homo sapiens, UniProt Q12809); assay: Binding affinity to hERG by radioligand binding assay
[30] = biological target: 5-hydroxytryptamine receptor 7 (Homo sapiens, UniProt P34969); assay: Binding affinity to 5HT7 receptor by radioligand binding assay
[31] = biological target: GABA-A receptor; anion channel; assay: Binding affinity to GABA receptor by radioligand binding assay; assay type: protein-complex assay
[32] = biological target: Sodium-dependent dopamine transporter (Homo sapiens, UniProt Q01959); assay: Binding affinity to DAT by radioligand binding assay
Translocator protein = Translocator protein (Homo sapiens, UniProt P30536); assay: Binding affinity to BZP receptor by radioligand binding assay
[33] = biological target: Alpha-2C adrenergic receptor (Homo sapiens, UniProt P18825); assay: Binding affinity to alpha 2C adrenergic receptor by radioligand binding assay
Alpha-2C adrenergic receptor, sequence (P18825 whole entry): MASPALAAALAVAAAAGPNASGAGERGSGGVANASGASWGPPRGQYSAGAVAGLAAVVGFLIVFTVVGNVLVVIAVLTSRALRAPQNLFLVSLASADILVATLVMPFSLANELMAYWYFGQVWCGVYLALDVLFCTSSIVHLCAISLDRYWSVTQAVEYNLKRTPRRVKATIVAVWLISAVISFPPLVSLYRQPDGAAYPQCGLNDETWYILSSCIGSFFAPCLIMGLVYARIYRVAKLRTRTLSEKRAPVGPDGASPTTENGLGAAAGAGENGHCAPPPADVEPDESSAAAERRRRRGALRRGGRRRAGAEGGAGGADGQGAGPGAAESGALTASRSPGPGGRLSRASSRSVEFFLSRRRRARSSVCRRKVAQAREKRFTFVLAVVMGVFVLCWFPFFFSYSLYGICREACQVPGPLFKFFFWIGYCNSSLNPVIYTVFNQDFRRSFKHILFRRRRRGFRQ

[34] = Binding affinity to sodium channel by radioligand binding assay
[35] = biological target: 5-hydroxytryptamine receptor 1A (Homo sapiens) (UniProt P08908); assay: Agonist activity assessed by stimulation of [35S]GTP-gamma-S binding to human 5HT1A receptor expressed in CHO cells relative to 5-HT; assay type: functional, cell-based
5-hydroxytryptamine receptor 1A (Homo sapiens), sequence (P08908 whole entry): as the sequence (P08908 whole entry) above

Adenosine receptor A2a = Adenosine receptor A2a (Homo sapiens, UniProt P29274); assay: Binding affinity to adenosine […] receptor by radioligand binding assay
Adenosine receptor A2a, sequence (P29274 whole entry): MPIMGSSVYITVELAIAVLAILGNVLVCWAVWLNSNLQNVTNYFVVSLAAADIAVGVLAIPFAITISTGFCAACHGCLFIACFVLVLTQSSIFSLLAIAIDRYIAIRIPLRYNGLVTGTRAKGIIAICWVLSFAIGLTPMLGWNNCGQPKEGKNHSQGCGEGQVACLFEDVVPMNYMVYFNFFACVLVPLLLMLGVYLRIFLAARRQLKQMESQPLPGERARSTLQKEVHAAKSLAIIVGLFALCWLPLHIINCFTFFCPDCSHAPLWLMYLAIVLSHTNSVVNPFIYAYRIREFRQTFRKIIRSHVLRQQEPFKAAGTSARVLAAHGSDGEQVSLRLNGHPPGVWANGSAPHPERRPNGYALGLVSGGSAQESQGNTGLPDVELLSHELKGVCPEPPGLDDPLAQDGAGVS

Baboon = assay: Penetration through blood-brain barrier in baboon; assay type: ADME, organism-based, Papio; conditions: in vivo

Work on `COc1cccc(N2CCN(CCCCn3ncc(=O)n(C)c3=O)CC2)c1` yielded a Ki [1] of over 10 µM, an EC50 [2] of 0.3 nM and a Ki [3] of over 10 µM. It also gave a Ki (Histamine H3 receptor) of over 10 µM, a Ki [4] of 2100 nM and a Ki [5] of 33.7 nM. The Ki [6] was 250 nM, the Ki (Histamine H4 receptor) was over 10 µM and the Ki (D(4) dopamine receptor) was over 10 µM. It also gave a Ki (Adenosine A2 receptor) of over 10 µM, a Ki (Histamine H2 receptor) of 2130 nM and a Ki [7] of over 10 µM. For the same compound, the Ki [8] was over 10 µM, the Ki [9] was over 10 µM and the Ki [10] was over 10 µM. The Ki (D(3) dopamine receptor) was over 10 µM, the Ki [11] was over 10 µM and the Ki [12] was 180 nM. The Ki [13] was over 10 µM, the Ki [14] was 1.1 nM and the Ki (Adenosine receptor A1) was over 10 µM. It also gave a Ki (Histamine H1 receptor) of 839 nM, a Ki [15] of over 10 µM and a Ki [16] of over 10 µM. It also gave a Ki [17] of over 10 µM, a Ki [18] of over 10 µM and a Ki [19] of over 10 µM. The Ki [20] was over 10 µM, the Ki [21] was over 10 µM and the Ki [22] was 228 nM. For the same compound, the Ki (D(1B) dopamine receptor) was over 10 µM, the Ki [23] was over 10 µM and the Ki [24] was 378 nM. It also gave a Ki (Adenosine receptor A3) of over 10 µM, a Ki [25] of over 10 µM and a Ki [26] of over 10 µM. The Ki [27] was 413 nM, the Ki (D(2) dopamine receptor) was 2580 nM and the Ki [28] was over 10 µM. For the same compound, the Ki [29] was over 10 µM, the Ki [30] was 328 nM and the Ki [31] was over 10 µM. For the same compound, the Ki [32] was over 10 µM, the Ki (Translocator protein) was over 10 µM and the Ki [33] was 109 nM. The Ki [34] was over 10 µM, the Emax [35] was 95% and the Ki (Adenosine receptor A2a) was over 10 µM. For the same compound, the Activity (Baboon) was “Active”.
